Test results from ChEMBL document CHEMBL4130507, “Therapeutic investigations of novel indoxyl-based indolines: A drug target validation and Structure-Activity Relationship of angiotensin-converting enzyme inhibitors with cardiovascular regulation and thrombolytic potential” (Eur J Med Chem, 2017).
pIC50: −log10 of the molar value. Activity calls are given as the source filed them. The rule behind the calls is not given here.

Columns and labels:
[1] = target: T1, Angiotensin-converting enzyme (Homo sapiens, UniProt P12821); test: Inhibition of ACE (unknown origin) using Hippuryl-L-Histidyl-L-Leucine as substrate after 60 mins by colorimetric method
T1 sequence (P12821 whole entry): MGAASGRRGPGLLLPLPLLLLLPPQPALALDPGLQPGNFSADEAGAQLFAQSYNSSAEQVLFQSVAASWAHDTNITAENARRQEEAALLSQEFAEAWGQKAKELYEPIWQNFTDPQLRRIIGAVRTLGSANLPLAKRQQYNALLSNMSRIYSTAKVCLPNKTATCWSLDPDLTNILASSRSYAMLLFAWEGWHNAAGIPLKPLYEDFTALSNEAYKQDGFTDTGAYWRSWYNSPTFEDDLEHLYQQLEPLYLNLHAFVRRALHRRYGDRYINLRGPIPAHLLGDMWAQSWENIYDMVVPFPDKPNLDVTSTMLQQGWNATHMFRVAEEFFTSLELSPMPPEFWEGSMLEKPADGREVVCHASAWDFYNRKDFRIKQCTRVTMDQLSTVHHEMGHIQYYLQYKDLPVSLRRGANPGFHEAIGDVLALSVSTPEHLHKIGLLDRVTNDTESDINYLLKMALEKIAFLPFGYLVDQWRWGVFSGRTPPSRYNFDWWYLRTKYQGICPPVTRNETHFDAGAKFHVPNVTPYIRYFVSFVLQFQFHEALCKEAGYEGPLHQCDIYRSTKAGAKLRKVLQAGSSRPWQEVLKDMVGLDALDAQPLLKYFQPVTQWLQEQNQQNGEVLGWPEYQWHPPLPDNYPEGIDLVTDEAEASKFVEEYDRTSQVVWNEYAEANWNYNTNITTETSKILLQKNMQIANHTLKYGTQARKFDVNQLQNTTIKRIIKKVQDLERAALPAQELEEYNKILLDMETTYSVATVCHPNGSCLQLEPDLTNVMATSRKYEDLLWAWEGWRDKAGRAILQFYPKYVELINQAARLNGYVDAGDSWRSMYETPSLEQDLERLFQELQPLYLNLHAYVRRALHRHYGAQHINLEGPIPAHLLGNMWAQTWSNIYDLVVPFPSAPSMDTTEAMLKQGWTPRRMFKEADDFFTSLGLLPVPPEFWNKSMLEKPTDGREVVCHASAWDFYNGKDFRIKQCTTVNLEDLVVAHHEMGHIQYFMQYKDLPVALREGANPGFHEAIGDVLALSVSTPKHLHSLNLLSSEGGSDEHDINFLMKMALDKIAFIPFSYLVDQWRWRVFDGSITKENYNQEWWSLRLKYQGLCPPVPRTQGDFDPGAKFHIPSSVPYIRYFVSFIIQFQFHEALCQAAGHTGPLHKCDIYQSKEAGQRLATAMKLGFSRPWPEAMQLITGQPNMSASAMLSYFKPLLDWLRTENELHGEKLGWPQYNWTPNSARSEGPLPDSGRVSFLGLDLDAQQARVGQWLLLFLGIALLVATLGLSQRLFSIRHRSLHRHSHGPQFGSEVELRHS

[2] = target: T1, Angiotensin-converting enzyme; test: Inhibition of ACE (unknown origin) at IC50 using Hippuryl-L-Histidyl-L-Leucine as substrate after 60 mins by colorimetric method relative to control
[3] = Antioxidant activity assessed as H2O2 free radical scavenging activity at IC50 after 1 hr by UV spectrophotometric analysis relative to control; assay type: functional
[4] = Antioxidant activity assessed as H2O2 free radical scavenging activity after 1 hr by UV spectrophotometric analysis; assay type: functional
DNA = test: Inhibition of H2O2-induced Escherichia coli DH5alpha genomic DNA damage at 25 to 250 uL after 24 hrs by ethidium-bromide staining-based agarose gel electrophoresis; assay type: nucleic-acid assay; settings: Escherichia coli DH5[alpha]
Blood [5] = test: Thrombolytic activity in human blood after 2 hrs relative to control; assay type: functional
MCF7 [6] = test: Cytotoxicity against human MCF7 cells after 24 to 72 hrs by MTT assay; assay type: functional, cell-based
MCF7 [7] = test: Cytotoxicity against human MCF7 cells at IC50 after 24 to 72 hrs by MTT assay relative to control; assay type: functional
MCF10 = test: Cytotoxicity against human MCF10 cells at 10 to 150 ug/ml after 24 to 72 hrs by MTT assay; assay type: cell-based
Blood [8] = test: Thrombolytic activity in human blood after 60 mins; assay type: functional, tissue-based
Blood [9] = test: Thrombolytic activity in human blood after 2 hrs; assay type: functional, tissue-based
Erythrocyte = test: Induction of membrane stabilization in human RBC assessed as reduction in hemolysis relative to control; assay type: functional; set-up: scale not given: the % may be the effect or the level left

Row | Structure (SMILES) | pIC50 [1] | inhibition [2] | Activity [3] | Activity [4] | inhibition (DNA) | Activity (Blood [5]) | pIC50 (MCF7 [6]) | Activity (MCF7 [7]) | Activity (MCF10) | Activity (Blood [8]) | pIC50 (Blood [9]) | Activity (Erythrocyte)
1 | COc1ccc(N2C(=O)/C(=N/C(=S)NCc3cc4ccccc4cc3O)c3ccccc32)cc1 | 8.01 | 86.4% | 79.4% | Dose-dependent effect |  |  |  |  |  |  |  | 
2 | O=C1/C(=N\C(=S)NCc2cc3ccccc3cc2O)c2ccccc2N1C(=O)c1ccccc1 | 8.05 | 87.3% | 89.5% | Dose-dependent effect | Active | 83.5% | 6.99 | 78.12% | Non-Toxic |  |  | 
3 | CCCN1C(=O)/C(=N\C(=S)NCc2cc3ccccc3cc2O)c2ccccc21 | 7.93 | 80.7% | 75.1% | Dose-dependent effect |  |  |  |  |  |  |  | 
4 | O=C1/C(=N\C(=S)NCc2cc3ccccc3cc2O)c2ccccc2N1c1ccccc1Cl | 7.82 | 76.5% | 82.7% | Dose-dependent effect |  |  |  |  |  |  |  | 
5 | O=C(O)CN1C(=O)/C(=N\C(=S)NCc2cc3ccccc3cc2O)c2ccccc21 | 8.55 | 96.1% | 98.1% | Dose-dependent effect | Active | 83.5% | 7.09 | 89.02% | Non-Toxic | Active | 7.46 | 96%
6 | CC(=O)CN1C(=O)/C(=N\C(=S)NCc2cc3ccccc3cc2O)c2ccccc21 | 6.95 | 24% | 68.5% | Dose-dependent effect |  |  |  |  |  |  |  | 
7 | Cc1ccc(C(=O)N2C(=O)/C(=N\C(=S)NCc3cc4ccccc4cc3O)c3ccccc32)cc1 | 7.62 | 65% | 83.1% | Dose-dependent effect |  |  |  |  |  |  |  | 
8 | CC(=O)N1C(=O)/C(=N\C(=S)NCc2cc3ccccc3cc2O)c2ccccc21 | 7.97 | 82.7% | 81.2% | Dose-dependent effect | Active |  |  |  |  |  |  | 
9 | NCCCC[C@H](N[C@@H](CCc1ccccc1)C(=O)O)C(=O)N1CCC[C@H]1C(=O)O |  | 89.1% |  |  |  |  |  |  |  |  |  | 
10 | COc1cccc2c1C(=O)c1c(O)c3c(c(O)c1C2=O)C[C@@](O)(C(=O)CO)C[C@@H]3O[C@H]1C[C@H](N)[C@H](O)[C@H](C)O1 [DOXORUBICIN] |  |  |  |  |  |  |  | 78.42% |  |  |  | 
11 | O=C1/C(=N\C(=S)NCc2cc3ccccc3cc2O)c2ccccc2N1CCBr | 8.39 | 90.5% | 92.5% | Dose-dependent effect | Active | 83.5% | 7.04 | 82.94% | Non-Toxic | Active |  | 
12 | O=C1O[C@H]([C@@H](O)CO)C(O)=C1O |  |  | 90.1% |  |  |  |  |  |  |  |  | 
13 | CN1C(=O)/C(=N\C(=S)NCc2cc3ccccc3cc2O)c2ccccc21 | 7.65 | 66.5% | 74.1% | Dose-dependent effect | inactive |  |  |  |  |  |  | 
14 | O=C1/C(=N\C(=S)NCc2cc3ccccc3cc2O)c2ccccc2N1c1ccccc1 | 7.72 | 69.2% | 80.8% | Dose-dependent effect |  |  |  |  |  |  |  | 
15 | COc1ccc(CN2C(=O)/C(=N\C(=S)NCc3cc4ccccc4cc3O)c3ccccc32)cc1 | 8.12 | 88.5% | 78% | Dose-dependent effect | Active | 83.5% |  |  |  |  |  | 
